Laboratory results from patent US9102638B2, “Amidobenzothiazoles and process for the preparation thereof” (COUNCIL OF SCIENTIFIC & INDUSTRIAL RESEARCH, priority 2011, dated 2015).

How the values were obtained:
Type in all cases: cell-based
RPMI-8226 = assay: In vitro cytotoxicity, NCI screen: RPMI-8226 (Leukemia); conditions: Homo sapiens; RPMI-8226, Leukemia panel, NCI protocol; read-out: GI50 values (μM conc.)
Procedure: (§1) The in vitro anticancer activity studies for these amidobenzothiazoles were carried out at the National Cancer Institute, Maryland, USA.
(§2) The amidobenzothiazoles have been tested against sixty human tumor cell lines derived from nine cancer types (leukemia cancer cell line, non-small cell lung cancer cell line, colon cancer cell line, CNS cancer cell line, melanoma cancer cell line, ovarian cancer cell line, renal cancer cell line, prostate cancer cell line and breast cancer cell lines). For these compounds results are expressed in GI50 values of that particular cancer cell at micro molar (μM) concentration as per NCI protocol.

[1] = test system: leukemia cancer cell lines; assay: In vitro activity against leukemia cancer cell lines (panel range); conditions: Homo sapiens, read-out: GI50 values, range over the listed compounds and the panel
Procedure: as §1, §2

M14 = assay: In vitro cytotoxicity, NCI screen: M14 (Melanoma); conditions: Homo sapiens; M14, Melanoma panel, NCI protocol; read-out: GI50 values (μM conc.)
Procedure: as §1, §2

NCI-H226 = assay: In vitro cytotoxicity, NCI screen: NCI-H226 (Non-small cell lung); conditions: Homo sapiens; NCI-H226, Non-small cell lung panel, NCI protocol; read-out: GI50 values (μM conc.)
Procedure: as §1, §2

BT-549 = assay: In vitro cytotoxicity, NCI screen: BT-549 (Breast); conditions: Homo sapiens, read-out: GI50 values (μM conc.)
Procedure: as §1, §2

SF-295 = assay: In vitro cytotoxicity, NCI screen: SF-295 (CNS); conditions: Homo sapiens; SF-295, CNS panel, NCI protocol; read-out: GI50 values (μM conc.)
Procedure: as §1, §2

NCI-H460 = assay: In vitro cytotoxicity, NCI screen: NCI-H460 (Non-small cell lung); conditions: Homo sapiens; NCI-H460, Non-small cell lung panel, NCI protocol; read-out: GI50 values (μM conc.)
Procedure: as §1, §2

MALME-3M = assay: In vitro cytotoxicity, NCI screen: MALME-3M (Melanoma); conditions: Homo sapiens, Melanoma panel, NCI protocol, read-out: GI50 values (μM conc.)
Procedure: as §1, §2

HT29 = assay: In vitro cytotoxicity, NCI screen: HT29 (Colon); conditions: Homo sapiens, HT-29; HT29, Colon panel, NCI protocol; read-out: GI50 values (μM conc.)
Procedure: as §1, §2

UACC-257 = assay: In vitro cytotoxicity, NCI screen: UACC-257 (Melanoma); conditions: Homo sapiens; UACC-257, Melanoma panel, NCI protocol; read-out: GI50 values (μM conc.)
Procedure: as §1, §2

EKVX = assay: In vitro cytotoxicity, NCI screen: EKVX (Non-small cell lung); conditions: Homo sapiens, Non-small cell lung panel, NCI protocol, read-out: GI50 values (μM conc.)
Procedure: as §1, §2

MCF7 = assay: In vitro cytotoxicity, NCI screen: MCF7 (Breast); conditions: Homo sapiens; MCF7, Breast panel, NCI protocol; read-out: GI50 values (μM conc.)
Procedure: as §1, §2

T-47D = assay: In vitro cytotoxicity, NCI screen: T-47D (Breast); conditions: Homo sapiens, T47D, Breast panel, NCI protocol, read-out: GI50 values (μM conc.)
Procedure: as §1, §2

HOP-92 = assay: In vitro cytotoxicity, NCI screen: HOP-92 (Non-small cell lung); conditions: Homo sapiens; HOP-92, Non-small cell lung panel, NCI protocol; read-out: GI50 values (μM conc.)
Procedure: as §1, §2

UACC-62 = assay: In vitro cytotoxicity, NCI screen: UACC-62 (Melanoma); conditions: Homo sapiens; UACC-62, Melanoma panel, NCI protocol; read-out: GI50 values (μM conc.)
Procedure: as §1, §2

RXF 393 = assay: In vitro cytotoxicity, NCI screen: RXF 393 (Renal); conditions: Homo sapiens; RXF 393, Renal panel, NCI protocol; read-out: GI50 values (μM conc.)
Procedure: as §1, §2

OVCAR-3 = assay: In vitro cytotoxicity, NCI screen: OVCAR-3 (Ovarian); conditions: Homo sapiens; OVCAR-3, Ovarian panel, NCI protocol; read-out: GI50 values (μM conc.)
Procedure: as §1, §2

SK-MEL-5 = assay: In vitro cytotoxicity, NCI screen: SK-MEL-5 (Melanoma); conditions: Homo sapiens; SK-MEL-5, Melanoma panel, NCI protocol; read-out: GI50 values (μM conc.)
Procedure: as §1, §2

786-0 = assay: In vitro cytotoxicity, NCI screen: 786-0 (Renal); conditions: Homo sapiens; 786-0, Renal panel, NCI protocol; read-out: GI50 values (μM conc.)
Procedure: as §1, §2

OVCAR-8 = assay: In vitro cytotoxicity, NCI screen: OVCAR-8 (Ovarian); conditions: Homo sapiens; OVCAR-8, Ovarian panel, NCI protocol; read-out: GI50 values (μM conc.)
Procedure: as §1, §2

HCT-15 = assay: In vitro cytotoxicity, NCI screen: HCT-15 (Colon); conditions: Homo sapiens; HCT-15, Colon panel, NCI protocol; read-out: GI50 values (μM conc.)
Procedure: as §1, §2

CNS cancer cell lines = assay: In vitro activity against CNS cancer cell lines (panel range); conditions: Homo sapiens, read-out: GI50 values, range over the listed compounds and the panel
Procedure: as §1, §2

SR = assay: In vitro cytotoxicity, NCI screen: SR (Leukemia); conditions: Homo sapiens, Leukemia panel, NCI protocol, read-out: GI50 values (μM conc.)
Procedure: as §1, §2

CAKI-1 = assay: In vitro cytotoxicity, NCI screen: CAKI-1 (Renal); conditions: Homo sapiens; CAKI-1, Renal panel, NCI protocol; read-out: GI50 values (μM conc.)
Procedure: as §1, §2

U251 = assay: In vitro cytotoxicity, NCI screen: U251 (CNS); conditions: Homo sapiens, U-251; U251, CNS panel, NCI protocol; read-out: GI50 values (μM conc.)
Procedure: as §1, §2

HS 578T = assay: In vitro cytotoxicity, NCI screen: HS 578T (Breast); conditions: Homo sapiens, read-out: GI50 values (μM conc.)
Procedure: as §1, §2

TK-10 = assay: In vitro cytotoxicity, NCI screen: TK-10 (Renal); conditions: Homo sapiens; TK-10, Renal panel, NCI protocol; read-out: GI50 values (μM conc.)
Procedure: as §1, §2

NCI-H322M = assay: In vitro cytotoxicity, NCI screen: NCI-H322M (Non-small cell lung); conditions: Homo sapiens, Non-small cell lung panel, NCI protocol, read-out: GI50 values (μM conc.)
Procedure: as §1, §2

HOP-62 = assay: In vitro cytotoxicity, NCI screen: HOP-62 (Non-small cell lung); conditions: Homo sapiens; HOP-62, Non-small cell lung panel, NCI protocol; read-out: GI50 values (μM conc.)
Procedure: as §1, §2

SW-620 = assay: In vitro cytotoxicity, NCI screen: SW-620 (Colon); conditions: Homo sapiens; SW-620, Colon panel, NCI protocol; read-out: GI50 values (μM conc.)
Procedure: as §1, §2

OVCAR-5 = assay: In vitro cytotoxicity, NCI screen: OVCAR-5 (Ovarian); conditions: Homo sapiens; OVCAR-5, Ovarian panel, NCI protocol; read-out: GI50 values (μM conc.)
Procedure: as §1, §2

SMILES	GI50 (RPMI-8226) [µM]	GI50 [1] [µM]	GI50 (M14) [µM]	GI50 (NCI-H226) [µM]	GI50 (BT-549) [µM]	GI50 (SF-295) [µM]	GI50 (NCI-H460) [µM]	GI50 (UACC-257) [µM]	GI50 (EKVX) [µM]	GI50 (MCF7) [µM]	GI50 (T-47D) [µM]	GI50 (HOP-92) [µM]	GI50 (RXF 393) [µM]	GI50 (OVCAR-3) [µM]	GI50 (786-0) [µM]	GI50 (OVCAR-8) [µM]	GI50 (HCT-15) [µM]	GI50 (CNS cancer cell lines) [µM]	GI50 (CAKI-1) [µM]	GI50 (U251) [µM]	further results
COc1ccc(/C=C\c2cc(OC)c(OC)c(OC)c2)cc1OCC(=O)Nc1nc2ccccc2s1 [Compound 8a, N1-(1,3-benzothiazol-2-yl)-2-{2-methoxy-5-[(Z)-2-(3,4,5-trimethoxyphenyl)-1-ethenyl]phenoxy}acetamide]	0.15	0.037 to 29.9	0.072	0.27	0.41	0.22	0.052	11	0.038	0.051	1	0.039	0.05	0.043	7.3	0.25	0.048	0.045 to 18.8	0.41	0.048	GI50 (MALME-3M): 1.99 µM; GI50 (HT29): 3.16 µM; GI50 (UACC-62): 0.063 µM; GI50 (SK-MEL-5): 0.036 µM; GI50 (SR): 0.037 µM
COc1ccc(/C=C\c2cc(OC)c(OC)c(OC)c2)cc1OCC(=O)Nc1nc2ccc(F)cc2s1 [Compound 8e, N1-(6-fluoro-1,3-benzothiazol-2-yl)-2-{2-methoxy-5-[(Z)-2-(3,4,5-trimethoxyphenyl)-1-ethenyl]phenoxy}acetamide]	6.36	0.037 to 29.9	6.82	5.6	16.7	4.29	4.36	8.69	5.72	2.3	3.39	5.73	6.29	9.99	7.12	7.15	8.19	0.045 to 18.8	2.78	4.33	GI50 (HS 578T): > 100 µM; GI50 (MALME-3M): 5.22 µM; GI50 (TK-10): 9.89 µM; GI50 (HT29): 9.63 µM; GI50 (UACC-62): 4.05 µM; GI50 (SK-MEL-5): 1.76 µM; GI50 (NCI-H322M): > 100 µM; GI50 (HOP-62): 5.7 µM; GI50 (SW-620): 65 µM; GI50 (SR): 2.19 µM; GI50 (OVCAR-5): > 100 µM
COc1ccc(/C=C\c2cc(OC)c(OC)c(OC)c2)cc1OCC(=O)Nc1nc2ccc(OC(F)(F)F)cc2s1 [Compound 8j, N1-(6-(trifluoromethoxy)-1,3-benzothiazol-2-yl)-2-{2-methoxy-5-[(Z)-2-(3,4,5-trimethoxyphenyl)-1-ethenyl]phenoxy}acetamide]	5.83	0.037 to 29.9	4.36	4.3	10.5	3.7	4.11	89.2	7.89	2.89	3.95	2.74	2.65	3.37	54.3	5	3.23	0.045 to 18.8	4.6	3.37	GI50 (HS 578T): 4.33 µM; GI50 (TK-10): 18.6 µM; GI50 (HT29): > 100 µM; GI50 (UACC-62): 5.11 µM; GI50 (SK-MEL-5): 3.26 µM; GI50 (NCI-H322M): > 100 µM; GI50 (HOP-62): 7.09 µM; GI50 (SW-620): 5.65 µM; GI50 (SR): 3.55 µM; GI50 (OVCAR-5): 3.12 µM
COc1ccc(C2CC(c3cc(OC)c(OC)c(OC)c3)=NN2C(C)=O)cc1OCC(=O)Nc1nc2ccc(C(F)(F)F)cc2s1 (stereo not drawn) [Compound 10i, N1-(6-(trifluoromethyl)-1,3-benzothiazol-2-yl)-2-{5-[1-acetyl-3-(3,4,5-trimethoxyphenyl)-4,5-dihydro-1H-5-pyrazolyl]-2-methoxyphenoxy}acetamide]	2.21	0.037 to 29.9	–	2.22	3.55	3.06	–	3.77	4.1	4.02	2.75	1.7	2.09	1.84	3.58	3.36	9.26	0.045 to 18.8	2.17	3.08	GI50 (HS 578T): 2.48 µM; GI50 (MALME-3M): 6.44 µM; GI50 (TK-10): 2.85 µM; GI50 (NCI-H322M): 3.67 µM; GI50 (HOP-62): 2.2 µM; GI50 (SW-620): > 100 µM; GI50 (OVCAR-5): 28.2 µM
